In patent US20110262502A1, “PULMONARY DELIVERY OF 17-HYDROXYPROGESTERONE CAPROATE (17-HPC)” (Prairie Pharmaceuticals LLC, priority 2010, published 2011):

Assay: API particle size distribution (Dv(10), Dv(50), Dv(90), Span)
Assay type: physicochemical
Conditions: 5% (w/w) in water, 15% Tween 80, 90 bar
From the text: In determining and characterizing particle size, e.g., particle size of an API (active pharmaceutical ingredient), the particle size parameters Dv(10), Dv(50) and Dv(90) may be used. Particle size measurements are preferably expressed in terms of Dv(10), Dv(50), and Dv(90), wherein Dv(10) refers to the particle size below which 10% of the volume of material exists; Dv(50) refers to the particle size below which 50% of the volume of material exists; and Dv(90) refers to the particle size below which 90% of the volume of material exists.
Referring to Table 5, experiments were performed with a suspension comprising the active pharmaceutical ingredient (the API), i.e., 17-HPC was the API in these experiments, wherein 17-HPC was present at approximately five percent (5%) w/w in water; and the suspension also comprised the surfactant Tween 80 at approximately 15% in these experiments (processing conditions conducted at Pressure=90 bar). […] Particle size measurements are expressed in terms of Dv(10), Dv(50), and Dv(90), wherein Dv(10) refers to the particle size below which 10% of the volume of material exists; Dv(50) refers to the particle size below which 50% of the volume of material exists; and Dv(90) refers to the particle size below which 90% of the volume of material exists). […]
Exemplary particle size reduction experiments, and characterization of API (i.e., 17-HPC) particle size distribution, using a suspension prepared without a surfactant. Referring to Table 7, particle size reduction of 17-HPC was observed without using any surfactant. Experiments were performed with a suspension comprising the active pharmaceutical ingredient (the API), i.e., 17-HPC in these experiments, in water and without a surfactant. FIG. 16 depicts an exemplary API particle size distribution profile (17-HPC is the active ingredient) after a spray-drying (SD) process. Referring again to FIG. 16, and also to Table 7, an exemplary 17-HPC particle size distribution profile was obtained after approximately 10 to 55 cycles of milling. API particle size was measured after spray drying (SD). Particle size measurements are expressed in terms of Dv(10), Dv(50), and Dv(90), wherein Dv(10) refers to the particle size below which 10% of the volume of material exists; Dv(50) refers to the particle size below which 50% of the volume of material exists; and Dv(90) refers to the particle size below which 90% of the volume of material exists).

Q: With `CCCCCC(=O)O[C@]1(C(C)=O)CC[C@H]2[C@@H]3CCC4=CC(=O)CC[C@]4(C)[C@H]3CC[C@@]21C` [17HPC, 17α-HYDROXYPROGESTERONE CAPROATE] as the compound, how does the “Particle Size Dv(10)” value (after 8 cycles) read?
A: 1.015 μm

Q: What about the “Particle Size Dv(50)” value (after 8 cycles) of the same compound?
A: 3.021 μm

Q: What about the “Particle Size Dv(90)” value (after 8 cycles) of the same compound?
A: 7.302 μm

Q: And the “Particle Size Span” value (after 8 cycles)?
A: 2.081

Q: And the “Particle Size Dv(10)” value (after 16 cycles)?
A: 1.071 μm

Q: What about the “Particle Size Dv(50)” value (after 16 cycles) of the same compound?
A: 2.574 μm

Q: And the “Particle Size Dv(90)” value (after 16 cycles)?
A: 5.347 μm

Q: And the “Particle Size Span” value (after 16 cycles)?
A: 1.662

Q: And the “Particle Size Dv(10)” value (after 25 cycles)?
A: 1.014 μm

Q: What about the “Particle Size Dv(50)” value (after 25 cycles) of the same compound?
A: 2.255 μm

Q: What about the “Particle Size Dv(90)” value (after 25 cycles) of the same compound?
A: 4.517 μm

Q: And the “Particle Size Span” value (after 25 cycles)?
A: 1.553
